Measured values as given in US20230235036A1, “ACVR1 (ALK2) RECEPTOR INHIBITION TO TREAT NEUROLOGICAL DISEASES” (The J. David Gladstone Institutes, a testamentary trust …, priority 2020, published 2023).
“Also recorded” adds a separate entry of the source. Read-outs that look alike come from different tables or passages of the source. Blank lines part the entries; values can stand above or below the compound they belong to.

Tests used:
primary rat OPCs = experiment: OPC-X-screen: OPC differentiation to MBP+ OLs or GFAP+ astrocytes in presence of fibrinogen; assay type: cell-based; conditions: for OPC differentiation to mature MBP+ OLs under extrinsic inhibition by fibrinogen: myelin-promoting compound screen, fibrinogen 1.5 mg/ml, benztropine, clemastine, quetiapine, miconazole, (±)U-50488 1 μM, clobetasol 5 μM, XAV-939 0.1 μM; for OPC differentiation to mature MBP+ OLs under extrinsic inhibition by fibrinogen / cell-fate switch of OPCs to GFAP+ cells by fibrinogen: DMH1 1 μM; for cell-fate switch of OPCs to GFAP+ cells by fibrinogen: fibrinogen-treated OPCs, clemastine 1 μM
[1] = system: BMP signaling (P-SMAD1/5, ID2) in primary rat OPCs; experiment: Immunoblot of phospho-SMAD1/5 and ID2 in fibrinogen-treated OPCs; assay type: cell-based
Protocol: Cells or tissue were lysed in RIPA lysis buffer (Thermo Fisher Scientific) supplemented with protease/phosphatase inhibitor cocktails (Calbiochem) and lysates were cleared by centrifuging at 13,000×g for 15 minutes at 4° C. Equal amounts of protein were loaded in […] bis-tris gels (Thermo Fisher Scientific) and analyzed by western blotting. Bands were visualized with HRP-conjugated secondary antibodies (Cell Signaling Technology). Densitometry was performed using ImageJ Software (NIH) with values for each band normalized to GAPDH loading controls from the same membrane. Primary antibodies were: Id2 (1:1000, rabbit monoclonal, #M213, CalBioreagents); phospho-Smad1/5 (1:1000, rabbit monoclonal, #9516, Cell Signaling Technology); GAPDH (1:1000, rabbit monoclonal, #2118, Cell Signaling Technology)

Water solubility = assay type: physicochemical
NOD-MOG35-55 EAE mice = experiment: Progressive NOD-MOG35-55 EAE, therapeutic treatment; assay type: in vivo, mouse
[2] = system: NG2-CreER™:Rosa^tdTomato/+ MOG35-55-EAE mice; conditions: vs saline
PLP-EAE = experiment: In vivo PLP-EAE
[3] = fibrinogen alone vs control, OPC-X assay
[4] = LDN-212854 dose response 5 μM to 2 nM, fibrinogen 2.5 mg/ml, 3 days
[5] = in vivo 2P imaging at chronic EAE

Compound: CN1[C@@H]2CC[C@H]1C[C@@H](OC(c1ccccc1)c1ccccc1)C2 [benztropine]
OPC differentiation to mature MBP+ OLs under extrinsic inhibition by fibrinogen (primary rat OPCs; 3 days): did not overcome extrinsic inhibition of OPC differentiation by fibrinogen

Compound: Clc1ccc(COC(Cn2ccnc2)c2ccc(Cl)cc2Cl)c(Cl)c1 (stereo not drawn) [miconazole]
OPC differentiation to mature MBP+ OLs under extrinsic inhibition by fibrinogen (primary rat OPCs; 3 days): did not overcome extrinsic inhibition of OPC differentiation by fibrinogen

Compound: fibrinogen
decrease of MBP+ mature OLs as compared to controls (primary rat OPCs; [3]): ~60%
increase of GFAP+ astrocyte-like cells as compared to controls (primary rat OPCs; [3]): ~60%

Compound: OCCOCCN1CCN(C2=Nc3ccccc3Sc3ccccc32)CC1 [quetiapine]
OPC differentiation to mature MBP+ OLs under extrinsic inhibition by fibrinogen (primary rat OPCs; 3 days): did not overcome extrinsic inhibition of OPC differentiation by fibrinogen

Compound: C[C@H]1C[C@H]2[C@@H]3CCC4=CC(=O)C=C[C@]4(C)[C@@]3(F)[C@@H](O)C[C@]2(C)[C@@]1(O)C(=O)CCl [clobetasol]
OPC differentiation to mature MBP+ OLs under extrinsic inhibition by fibrinogen (primary rat OPCs; 3 days): did not overcome extrinsic inhibition of OPC differentiation by fibrinogen

water solubility (Water solubility): not water-soluble
Compound: CC(C)Oc1ccc(-c2cnc3c(-c4ccnc5ccccc45)cnn3c2)cc1 [DMH1]
cell-fate switch of OPCs to GFAP+ cells by fibrinogen (primary rat OPCs; 3 days): abolished
OPC differentiation to mature MBP+ OLs under extrinsic inhibition by fibrinogen (primary rat OPCs; 3 days): restored OPC differentiation to mature OLs to control levels
fibrinogen-induced expression of BMP target protein ID2 [1]: blocked
fibrinogen-induced phosphorylation of SMAD1/5 [1]: blocked

Compound: c1cc(-c2cnn3cc(-c4ccc(N5CCNCC5)cc4)cnc23)c2cccnc2c1 [LDN-212854]
formation of GFAP+ astrocytes from fibrinogen-treated OPCs (primary rat OPCs; [4]): blocked the formation of GFAP+ astrocytes
mature OL (MBP+) differentiation from fibrinogen-treated OPCs (primary rat OPCs; [4]): enhanced formation of mature oligodendrocytes; also recorded: restored mature OL differentiation
demyelination in spinal cord (NOD-MOG35-55 EAE mice; 30 days treatment, vs saline): reduced
fibrinogen deposition in spinal cord (NOD-MOG35-55 EAE mice; 30 days treatment, vs saline): reduced
clinical scores (NOD-MOG35-55 EAE mice; treated for 30 days, vs saline): significantly improved
group mean of maximum clinical scores (NOD-MOG35-55 EAE mice; treated for 30 days, maximum scores from the last 20 days of treatment, five-point scale): 1.75
clinical scores ([2]; 6 mg/kg twice daily for 14 days starting at peak disease): significantly improved
ID2 expression in NG2 cells in the EAE white matter ([2]; 14 day treatment): decreased
demyelination in spinal cord ([2]; 14 days treatment): reduced
fibrinogen deposition in spinal cord ([2]; 14 days treatment): reduced
myelin damage (myelin circularity) [2, 5]: markedly reduced
perivascular NG2 clusters [2, 5]: markedly reduced
clinical scores (PLP-EAE): improved
spinal cord Id2 protein levels (PLP-EAE): reduced
water solubility (Water solubility): water soluble; also recorded: water-soluble

Compound: CN1CCC[C@@H]1CCO[C@](C)(c1ccccc1)c1ccc(Cl)cc1 [clemastine]
OPC differentiation to mature OLs in the presence of fibrinogen (primary rat OPCs; clemastine dose-response, fibrinogen 2.5 mg/ml, differentiation media without T3 or growth factors, 3 days): did not enhance
cell-fate switch of OPCs to GFAP+ cells by fibrinogen (primary rat OPCs; 3 days): did not inhibit SMAD1/5 phosphorylation, a key pathway downstream of BMP receptor activation, or rescue
number of MBP+ cells in control conditions (primary rat OPCs; no fibrinogen, differentiation media without T3 or growth factors, 3 days): increased
fibrinogen-induced expression of BMP target protein ID2 [1]: did not block
fibrinogen-induced phosphorylation of SMAD1/5 [1]: did not inhibit
fibrinogen-induced phosphorylation of SMAD1/5 ([1]; listed as Clemastine): did not block

Compound: Oc1nc(-c2ccc(C(F)(F)F)cc2)nc2c1CSCC2 [XAV-939]
OPC differentiation to mature MBP+ OLs under extrinsic inhibition by fibrinogen (primary rat OPCs; 3 days): did not overcome extrinsic inhibition of OPC differentiation by fibrinogen
